Measurements taken from patent US8969554B2, “6-acyl-1,2,4-triazine-3,5-dione derivative and herbicides” (Kumiai Chemical Industry Co., Ltd., priority 2010, dated 2015).

Assays:
[1] = system: Echinochloa oryzicola; test: Herbicidal activity by paddy field soil treatment (Test Example 1); type: in vivo; set-up: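 index 0 to 10 in 10% steps of herbicidal effect with 10 meaning complete death and 0 below 10%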; conditions: 1000 g of effective component per hectare, evaluated on day 21 after the treatment, criteria of Table 72
Summary of the method: (§1)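 Paddy soil was watered and puddled, seeded, then flooded to 3 cm. One day later the formulation, diluted with water, went onto the water surface at 1000 g/ha of active ingredient. After 21 days in the greenhouse, effects were scored.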

[2] = system: Monochoria vaginalis; test: as above; type: in vivo; set-up: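 index 0 to 10 in 10% steps of herbicidal effect with 10 meaning complete death and 0 below 10%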; conditions: 1000 g of effective component per hectare, evaluated on day 21 after the treatment, criteria of Table 72
Summary of the method: as §1

[3] = system: Scirpus juncoides Rocxb.; test: as above; type: in vivo; set-up: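 index 0 to 10 in 10% steps of herbicidal effect with 10 meaning complete death and 0 below 10%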; conditions: applied on water surface, 1000 g of effective component per hectare, day 21 after the treatment
Summary of the method: as §1

[4] = system: A. retroflexus; test: Herbicidal activity by field soil treatment (Test example 2); type: in vivo; set-up: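 index 0 to 10 in 10% steps of herbicidal effect with 10 meaning complete death and 0 below 10%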; conditions: 1000 g effective component per hectare, day 21 after the treatment
Summary of the method: (§2)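 Field soil filled 80 cm^2 pots; seeds were sown, covered, and the soil surface treated with a small sprayer. Dose: 1000 g/ha of active component from a water-diluted wettable powder, applied in 1000 L/ha. Greenhouse cultivation followed, with evaluation at day 21.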

[5] = system: Echinochloa crus-galli; test: as above; type: in vivo; set-up: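 index 0 to 10 in 10% steps of herbicidal effect with 10 meaning complete death and 0 below 10%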; conditions: 1000 g effective component per hectare, day 21 after the treatment
Summary of the method: as §2

[6] = system: Indian millet; test: as above; type: in vivo; set-up: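 index 0 to 10 in 10% steps of herbicidal effect with 10 meaning complete death and 0 below 10%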; conditions: 1000 g effective component per hectare, day 21 after the treatment
Summary of the method: as §2

[7] = system: foxtail; test: as above; type: in vivo; conditions: 1000 g effective component per hectare, day 21 after the treatment;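 further: index 0 to 10 in 10% steps of herbicidal effect with 10 meaning complete death and 0 below 10%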
Summary of the method: as §2

[8] = system: A. retroflexus; test: Herbicidal activity by field foliage treatment (Test example 3); type: in vivo; set-up: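 index 0 to 10 in 10% steps of herbicidal effect with 10 meaning complete death and 0 below 10%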; conditions: 1000 g effective component per hectare, day 14 after the treatment
Summary of the method: (§3)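 Seeds sown in field soil and kept 2 weeks in a greenhouse; foliage of the whole plant then sprayed with diluted wettable powder (1000 L/ha, 1000 g a.i./ha); plants returned to the greenhouse and scored for herbicidal effect on day 14.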

[9] = system: Indian millet; test: as above; type: in vivo; set-up: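 index 0 to 10 in 10% steps of herbicidal effect with 10 meaning complete death and 0 below 10%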; conditions: 1000 g effective component per hectare, day 14 after the treatment
Summary of the method: as §3

[10] = system: Echinochloa crus-galli; test: as above; type: in vivo; set-up: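 index 0 to 10 in 10% steps of herbicidal effect with 10 meaning complete death and 0 below 10%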; conditions: 1000 g effective component per hectare, day 14 after the treatment
Summary of the method: (§4)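 Herbicidal effect was rated on day 14 following a foliar spray of 1000 g active ingredient per hectare, applied as water-diluted wettable powder at 1000 L/ha. Plants had been raised for 2 weeks in field soil under greenhouse conditions before spraying.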

[11] = system: Setaria viridis; test: as above; type: in vivo; conditions: 1000 g effective component per hectare, day 14 after the treatment;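 further: index 0 to 10 in 10% steps of herbicidal effect with 10 meaning complete death and 0 below 10%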
Summary of the method: as §4

| Structure (SMILES) | melting point [°C] | Herbicidal effects index number, Echinochloa oryzicola [1] | Herbicidal effects index number, Monochoria vaginalis [2] | herbicidal effect index, S. juncoides Rocxb. [3] | herbicidal effect index, Amaranthus retroflexus [4] | herbicidal effect index, Echinochloa crus-galli [5] | herbicidal effect index, Abutilon theophrasti [6] | herbicidal effect index, Setaria viridis [7] | herbicidal effect index, Amaranthus retroflexus [8] | herbicidal effect index, Abutilon theophrasti [9] | herbicidal effect index, Echinochloa crus-galli [10] | herbicidal effect index, Setaria viridis [11] |
| --- | --- | --- | --- | --- | --- | --- | --- | --- | --- | --- | --- | --- |
| Cn1nc(C(=O)O)c(=O)n(-c2ccccc2)c1=O [V-50, 2-methyl-3,5-dioxo-4-phenyl-2,3,4,5-tetrahydro-1,2,4-triazine-6-carboxylic acid] | 195 to 198 | – | – | – | – | – | – | – | – | – | – | – |
| Cn1nc(C(=O)O)c(=O)n(-c2ccccc2C#N)c1=O [V-72, 2-methyl-3,5-dioxo-4-(2-cyanophenyl)-2,3,4,5-tetrahydro-1,2,4-triazine-6-carboxylic acid] | 213 to 215 | – | – | – | – | – | – | – | – | – | – | – |
| Cn1nc(C(=O)C2=C(O)CCCC2=O)c(=O)n(-c2ccc(F)c(F)c2)c1=O [I-75] | – | 10 | 10 | 10 | 10 | 9 | 10 | 7 | 10 | 10 | 10 | 10 |
| CCCCn1c(=O)c(C(=O)C2=C(O)CCCC2=O)nn(C)c1=O [I-5] | – | 10 | 10 | 10 | 10 | 10 | 10 | 7 | 10 | 10 | 10 | 10 |
| Cc1ccc(-n2c(=O)c(C(=O)C3=C(O)CCCC3=O)nn(C)c2=O)cc1F [I-105] | – | 10 | 10 | 10 | 10 | 9 | 9 | 7 | 10 | 10 | 10 | 7 |
| Cn1nc(C(=O)C2=C(O)CCCC2=O)c(=O)n(-c2cccc([N+](=O)[O-])c2)c1=O [I-67] | – | 10 | 10 | 10 | 10 | 10 | 10 | 10 | 10 | 10 | 10 | 10 |
| Cn1nc(C(=O)C2=C(O)CCCC2=O)c(=O)n(-c2ccnc(Br)c2)c1=O [I-281] | – | 10 | 10 | 10 | 10 | 9 | 9 | 9 | 9 | 9 | 9 | 7 |
| Cn1nc(C(=O)C2=C(O)CCCC2=O)c(=O)n(-c2cccc(Cl)c2)c1=O [I-52] | – | 10 | 10 | 10 | 10 | 10 | 10 | 10 | 10 | 10 | 10 | 10 |
| Cc1ccc(C)c(-n2c(=O)c(C(=O)C3=C(O)CCCC3=O)nn(C)c2=O)c1 [I-91] | – | 10 | 10 | 10 | 10 | 9 | 10 | 10 | 10 | 10 | 9 | 10 |
| Cn1nc(C(=O)C2=C(O)CCCC2=O)c(=O)n(-c2ccccc2C#N)c1=O [I-72] | – | 10 | 10 | 10 | 10 | 9 | 10 | 10 | 10 | 10 | 10 | 10 |
| Cn1nc(C(=O)C2=C(O)CCCC2=O)c(=O)n(-c2ccccn2)c1=O [I-179] | – | 10 | 10 | 10 | 9 | 10 | 10 | 10 | 10 | 10 | 10 | 10 |
| Cn1nc(C(=O)C2=C(O)CCCC2=O)c(=O)n(-c2ccc(-c3ccccc3)cc2)c1=O [I-271] | – | 8 | 8 | 10 | 10 | 10 | 10 | 10 | 10 | 9 | 10 | 7 |
